The text below walks through data of patent US12264159B2, “Functionalized heterocycles as antiviral agents” (Enanta Pharmaceuticals, Inc., priority 2018, dated 2025).

The term EC50 denotes the concentration needed to bring the measured effect to its halfway point. Low values mean an effect from little substance, high ones a need for much substance. The CC50 is the concentration giving 50% cytotoxicity. Low values mean greater toxicity to the cells, high ones lower toxicity to the cells.

The subject of one series is HBV in 2.2.15 cells. Briefly: 2.2.15 cells: viral product in cell lysates quantified via quantitative real time PCR. It counts as cell-based, hepatitis B virus (HBV). The note with it: Hepatitis B virus, 120 h, day 5 post treatment, 50% reduction of viral product vs no drug controls, readout (qPCR, HBsAg or HBeAg) not specified for the column. As for the experimental part: 2.2.15 cells are passaged upon attaining confluency in DMEM/F12 media in the presence of 10% FBS, Penn/Strep, and 250 ug/mL G418. Novel compounds are 5 fold serially diluted in DMSO and added to 96 well plates containing 35,000 cells/well at a 1:200 dilution so that the final concentration of DMSO is 0.5%. On day 5, post treatment cell lysates and supernatants are harvested for analysis.
Cells are lysed using Agilent Sidestep Lysis buffer, diluted 1:100 and quantified via quantitative real time PCR. Commercially available ELISA kits are used to quantitate the viral proteins HBsAg (Alpco) or HBeAg (US Biological) by following the manufacturer's recommended protocol after diluting samples to match the linear range of their respective assays. Irrespective of readout, compound concentrations that reduce viral product accumulation in the cell lysates or supernatants by 50% relative to no drug controls (EC50) are reported; EC50 ranges are as follows: A<0.1 μM; B 0.2-1 μM; C>1 μM.

A short description of series [1]: Compound induced cellular toxicity in HepG2 cells, ATPlite 1Step. It counts as cell-based. Particulars: human, three days exposure, 50% reduction of total ATP vs no drug controls. The method, then: At day 3, post seeding cells are treated with ATPlite 1Step according to the manufacturer's instructions.
(In ATP-based viability assays light output follows the ATP content of the culture.)

Molecule `CC(C)(C)[C@@H]1Cn2nc(-c3cnc(NC4CC4)nc3)cc2-c2cc(=O)c(C(=O)O)cn21` [Example 15, (R)-6-(tert-butyl)-2-(2-(cyclopropylamino)pyrimidin-5-yl)-10-oxo-5,6-dihydro-10H-pyrazolo[1,5-a]pyrido[2,2-c]pyrazine-12-carboxylic acid] registered an EC50 with HBV in 2.2.15 cells of under 100 nM. The CC50 at 3 days in series [1] was over 25000 nM.
The matching figures for `COc1cc(-c2cc3n(n2)C[C@@H](C(C)(C)C)n2cc(C(=O)O)c(=O)cc2-3)c(OC)nn1` [Example 16, (R)-6-(tert-butyl)-2-(3,6-dimethoxypyridazin-4-yl)-10-oxo-5,6-dihydro-10H-pyrazolo[1,5-a]pyrido[2,2-c]pyrazine-12-carboxylic acid]: under 100 nM and over 25000 nM.
The corresponding values for `CC(C)(C)[C@@H]1Cn2nc(-c3cccc(OC(F)(F)F)c3)cc2-c2cc(=O)c(C(=O)O)cn21` [Example 17, (R)-6-(tert-butyl)-10-oxo-2-(3-(trifluoromethoxy)phenyl)-5,6-dihydro-10H-pyrazolo[1,5-a]pyrido[2,2-c]pyrazine-12-carboxylic acid] are under 100 nM and over 25000 nM.
The matching figures for `CC(C)(C)[C@@H]1Cn2nc(-c3ccc4c(c3)OCCO4)cc2-c2cc(=O)c(C(=O)O)cn21` [Example 18, (R)-6-(tert-butyl)-2-(2,3-dihydrobenzo[b][1,4]dioxin-6-yl)-10-oxo-5,6-dihydro-10H-pyrazolo[1,5-a]pyrido[2,2-c]pyrazine-12-carboxylic acid]: under 100 nM and over 25000 nM.
In the case of `Cc1ncc(-c2cc3n(n2)C[C@@H](C(C)(C)C)n2cc(C(=O)O)c(=O)cc2-3)s1` [Example 19, (R)-6-(tert-butyl)-2-(2-methylthiazol-5-yl)-10-oxo-5,6-dihydro-10H-pyrazolo[1,5-a]pyrido[2,2-c]pyrazine-12-carboxylic acid], the EC50 with HBV in 2.2.15 cells was under 100 nM. For the same molecule, the CC50 at 3 days in series [1] was over 25000 nM.
As for `Cc1ccc(-c2cc3n(n2)C[C@@H](C(C)(C)C)n2cc(C(=O)O)c(=O)cc2-3)cc1` [Example 20, (R)-6-(tert-butyl)-10-oxo-2-(p-tolyl)-5,6-dihydro-10H-pyrazolo[1,5-a]pyrido[2,2-c]pyrazine-12-carboxylic acid], the EC50 in the series with HBV in 2.2.15 cells is under 100 nM. The CC50 at 3 days in series [1] was over 25000 nM.
Regarding `CC(C)(C)[C@@H]1Cn2nc(-c3cccc4c3OC(F)(F)O4)cc2-c2cc(=O)c(C(=O)O)cn21` [Example 21, (R)-6-(tert-butyl)-2-(2,2-difluorobenzo[d][1,3]dioxol-4-yl)-10-oxo-5,6-dihydro-10H-pyrazolo[1,5-a]pyrido[2,2-c]pyrazine-12-carboxylic acid], the EC50 in the series with HBV in 2.2.15 cells was under 100 nM. The molecule further displayed a CC50 at 3 days in series [1] of over 25000 nM.
Consider `CC(C)(C)[C@@H]1Cn2nc(-c3ccc(F)c4c3OCO4)cc2-c2cc(=O)c(C(=O)O)cn21` [Example 22, (R)-6-(tert-butyl)-2-(7-fluorobenzo[d][1,3]dioxol-4-yl)-10-oxo-5,6-dihydro-10H-pyrazolo[1,5-a]pyrido[2,2-c]pyrazine-12-carboxylic acid], for which the EC50 in the series on HBV in 2.2.15 cells is under 100 nM. Besides, the CC50 at 3 days in series [1] was over 25000 nM.
Take `COc1cccc(-c2cc3n(n2)C[C@@H](C(C)(C)C)n2cc(C(=O)O)c(=O)cc2-3)c1OC` [Example 23, (R)-6-(tert-butyl)-2-(2,3-dimethoxyphenyl)-10-oxo-5,6-dihydro-10H-pyrazolo[1,5-a]pyrido[2,2-c]pyrazine-12-carboxylic acid]: the EC50 in the series with HBV in 2.2.15 cells is 200 to 1000 nM. Besides, the CC50 at 3 days in series [1] was over 25000 nM.
In the series with HBV in 2.2.15 cells, `CC(C)(C)[C@@H]1Cn2nc(-c3ccccc3OC(F)(F)F)cc2-c2cc(=O)c(C(=O)O)cn21` [Example 24, (R)-6-(tert-butyl)-10-oxo-2-(2-(trifluoromethoxy)phenyl)-5,6-dihydro-10H-pyrazolo[1,5-a]pyrido[2,2-c]pyrazine-12-carboxylic acid] came in with an EC50 of under 100 nM. The CC50 at 3 days in series [1] was over 25000 nM.
The matching figures for `CC(C)(C)[C@@H]1Cn2nc(-c3ccc(OC(F)(F)F)cc3)cc2-c2cc(=O)c(C(=O)O)cn21` [Example 25, (R)-6-(tert-butyl)-10-oxo-2-(4-(trifluoromethoxy)phenyl)-5,6-dihydro-10H-pyrazolo[1,5-a]pyrido[2,2-c]pyrazine-12-carboxylic acid]: 200 to 1000 nM and over 25000 nM.
Take `CC(C)(C)[C@@H]1Cn2nc(-c3cccc4c3OCO4)cc2-c2cc(=O)c(C(=O)O)cn21` [Example 26, (R)-2-(benzo[d][1,3]dioxol-4-yl)-6-(tert-butyl)-10-oxo-5,6-dihydro-10H-pyrazolo[1,5-a]pyrido[2,2-c]pyrazine-12-carboxylic acid]: the EC50 in the series with HBV in 2.2.15 cells was under 100 nM. The molecule also returned a CC50 at 3 days in series [1] of over 25000 nM.
`CC(C)(C)[C@@H]1Cn2nc(-c3cccc4ccoc34)cc2-c2cc(=O)c(C(=O)O)cn21` [Example 27, (R)-2-(benzofuran-7-yl)-6-(tert-butyl)-10-oxo-5,6-dihydro-10H-pyrazolo[1,5-a]pyrido[2,2-c]pyrazine-12-carboxylic acid] returned an EC50 in the series with HBV in 2.2.15 cells of under 100 nM. The molecule also gave a CC50 at 3 days in series [1] of over 25000 nM.
In turn, `CC(C)(C)[C@@H]1Cn2nc(-c3cccc4occc34)cc2-c2cc(=O)c(C(=O)O)cn21` [Example 28, (R)-2-(benzofuran-4-yl)-6-(tert-butyl)-10-oxo-5,6-dihydro-10H-pyrazolo[1,5-a]pyrido[2,2-c]pyrazine-12-carboxylic acid] came in with an EC50 with HBV in 2.2.15 cells of under 100 nM. In addition, in series [1], the CC50 at 3 days was over 25000 nM.
Take `CC(C)(C)[C@@H]1Cn2nc(-c3c(F)cccc3F)cc2-c2cc(=O)c(C(=O)O)cn21` [Example 29, (R)-6-(tert-butyl)-2-(2,6-difluorophenyl)-10-oxo-5,6-dihydro-10H-pyrazolo[1,5-a]pyrido[2,2-c]pyrazine-12-carboxylic acid]: the EC50 with HBV in 2.2.15 cells is under 100 nM. In series [1], this molecule returned a CC50 at 3 days of over 25000 nM.
As to `CC(C)(C)[C@@H]1Cn2nc(-c3cccc(F)c3F)cc2-c2cc(=O)c(C(=O)O)cn21` [Example 30, (R)-6-(tert-butyl)-2-(2,3-difluorophenyl)-10-oxo-5,6-dihydro-10H-pyrazolo[1,5-a]pyrido[2,2-c]pyrazine-12-carboxylic acid], the 50% effective concentration (EC50) in the series on HBV in 2.2.15 cells is under 100 nM. The molecule further yielded a CC50 at 3 days in series [1] of over 25000 nM.
In the case of `CC(C)(C)[C@@H]1Cn2nc(-c3cccc4scnc34)cc2-c2cc(=O)c(C(=O)O)cn21` [Example 31, (R)-2-(benzo[d]thiazol-4-yl)-6-(tert-butyl)-10-oxo-5,6-dihydro-10H-pyrazolo[1,5-a]pyrido[2,2-c]pyrazine-12-carboxylic acid], in the series on HBV in 2.2.15 cells, the concentration giving a half-maximal response (EC50) is under 100 nM. In series [1], this molecule came in with a CC50 at 3 days of over 25000 nM.
`COc1ccc(OC)c(-c2cc3n(n2)C[C@@H](C(C)(C)C)n2cc(C(=O)O)c(=O)cc2-3)c1` [Example 32, (R)-6-(tert-butyl)-2-(2,5-dimethoxyphenyl)-10-oxo-5,6-dihydro-10H-pyrazolo[1,5-a]pyrido[2,2-c]pyrazine-12-carboxylic acid] came in with an EC50 in the series with HBV in 2.2.15 cells of under 100 nM. The CC50 at 3 days in series [1] was over 25000 nM.
The molecule `COc1ccc(OC(F)(F)F)cc1-c1cc2n(n1)C[C@@H](C(C)(C)C)n1cc(C(=O)O)c(=O)cc1-2` [Example 33, (R)-6-(tert-butyl)-2-(2-methoxy-5-(trifluoromethoxy)phenyl)-10-oxo-5,6-dihydro-10H-pyrazolo[1,5-a]pyrido[2,2-c]pyrazine-12-carboxylic acid] displayed an EC50 with HBV in 2.2.15 cells of under 100 nM. Also, the CC50 at 3 days in series [1] was over 25000 nM.
`COc1ccc(OC(F)(F)F)c(-c2cc3n(n2)C[C@@H](C(C)(C)C)n2cc(C(=O)O)c(=O)cc2-3)c1` [Example 34, (R)-6-(tert-butyl)-2-(5-methoxy-2-(trifluoromethoxy)phenyl)-10-oxo-5,6-dihydro-10H-pyrazolo[1,5-a]pyrido[2,2-c]pyrazine-12-carboxylic acid] had an EC50 with HBV in 2.2.15 cells of under 100 nM. This molecule also gave a CC50 at 3 days in series [1] of over 25000 nM.
The matching figures for `COc1ccc(OC)c(-c2cc3n(n2)C[C@@H](C(C)(C)C)n2cc(C(=O)O)c(=O)cc2-3)c1OC` [Example 35, (R)-6-(tert-butyl)-10-oxo-2-(2,3,6-trimethoxyphenyl)-5,6-dihydro-10H-pyrazolo[1,5-a]pyrido[2,2-c]pyrazine-12-carboxylic acid]: 200 to 1000 nM and over 25000 nM.
As to `COc1ccc(OCc2ccccc2)cc1-c1cc2n(n1)C[C@@H](C(C)(C)C)n1cc(C(=O)O)c(=O)cc1-2` [Example 36, (R)-2-(5-(benzyloxy)-2-methoxyphenyl)-6-(tert-butyl)-10-oxo-5,6-dihydro-10H-pyrazolo[1,5-a]pyrido[2,2-c]pyrazine-12-carboxylic acid], the EC50 in the series with HBV in 2.2.15 cells is under 100 nM. For the same molecule, the CC50 at 3 days in series [1] was over 25000 nM.
In turn, `CCOc1ccc(OC)cc1-c1cc2n(n1)C[C@@H](C(C)(C)C)n1cc(C(=O)O)c(=O)cc1-2` [Example 37, (R)-6-(tert-butyl)-2-(2-ethoxy-5-methoxyphenyl)-10-oxo-5,6-dihydro-10H-pyrazolo[1,5-a]pyrido[2,2-c]pyrazine-12-carboxylic acid] gave an EC50 in the series with HBV in 2.2.15 cells of under 100 nM. In addition, the CC50 at 3 days in series [1] is over 25000 nM.
As to `CC(C)(C)[C@@H]1Cn2nc(-c3ccc(F)nc3)cc2-c2cc(=O)c(C(=O)O)cn21` [Example 38, (R)-6-(tert-butyl)-2-(6-fluoropyridin-3-yl)-10-oxo-5,6-dihydro-10H-pyrazolo[1,5-a]pyrido[2,2-c]pyrazine-12-carboxylic acid], the EC50 in the series with HBV in 2.2.15 cells is under 100 nM. In series [1], this molecule registered a CC50 at 3 days of over 25000 nM.
